≈ marks a conversion by molar mass, not a printed value. Peptide text beside a SMILES is read from it.
Legend:
E. coli ATCC8739 = test: Time-kill assay; type: cell-based; conditions: E. coli ATCC8739, peptide at its MIC concentration, 37°C, CFU counting
Protocol: Time-killing experiments were achieved according to [18, 19] with minor modifications. The peptide's concentration was 1 × MIC and 2 × MIC. At the time points of 15, 30, 45, and 60 min and after homogenization, suspensions were diluted in 10 mM sodium phosphate buffer (pH 6.8) and spread onto MH agar plates. After overnight incubation at room temperature, CFUs were counted.

ANTS/DPX leakage assay = conditions: POPE/POPG (75 : 25) LUVs, 0.5 mM lipid, from Figure 10(c)
Protocol: The lipids 1-palmitoyl-2-oleoyl-sn-glycero-3-phospho-(1′-rac-glycerol) (POPG) and 1-palmitoyl-2-oleoyl-sn-glycero-3-phosphoethanolamine (POPE) were obtained from Avanti Polar Lipids, Inc., and used without further purification. Desired mixtures of phospholipids were first dried in glass tubes under nitrogen and then maintained under reduced pressure for at least 60 min. Lipid films were subsequently hydrated in PBS to yield a lipid concentration. The resulting dispersions were subjected to 5 freeze-thaw cycles by alternately placing the sample vial in a liquid nitrogen bath and a warm water bath (40°C). […]
The vesicles of POPE/POPG (75/25) at 25 mM concentration were obtained as previously described and suspended in a solution of 12.5 mM ANTS and 45 mM DPX in 10 mM HEPES. […] Final lipid concentration was measured by the method of Rouser.
To measure the leakage of DPX, the vesicles were diluted to a concentration of 0.5 mM lipid. […] ANTS fluorescence was monitored using a fluorimeter (excitation = 350 nm; emission = 530 nm) or a fluorescence plate reader (excitation filter wavelength/bandpass = 340/11; emission 530/25.
Fractional leakage was calculated as (Fsample − Finitial)/(Flysed−Finitial).

[1] = test system: Propionibacterium acnes (clinical isolate), first listed; test: Antibacterial activity on skin multiresistant bacteria; type: cell-based; conditions: Cutibacterium acnes, first listed (r7)
Protocol: (§1) The minimum inhibitory concentration (MIC) was determined by a liquid test in 96-well microplates as previously described. 100 µL of the sample to be tested was distributed in triplicate to obtain a range of final concentrations from 100 to 0.2 µM in the wells. 90 µL of bacterial suspension (5 × 10^5 CFU/mL for Gram-negative bacteria and 5 × 10^5 CFU/mL for Gram-positive strains in Mueller–Hinton broth) were added to each well [14]. The microtiter plates were incubated at 37°C overnight. The optical density of the wells was measured at […], and the results were interpreted by calculating the percentage of growth in each well according to the formula: % growth = (OD600 well − OD600 T0)/(OD600 of T100 − OD600 T0) ∗ 100, where OD600 T100 = DO600 growth control (bacterial suspension without the test sample, 100% growth), OD600 T0 = OD600 of sterility control (culture medium + […] 10 µL formaldehyde, 0% growth) well, and OD600 = OD600 of the well which was desired to calculate the percentage of growth (+ bacterial suspension test sample). MIC is the minimum concentration of the peptide that inhibits bacterial growth after incubation at 37°C for 20 hours.

[2] = test system: Propionibacterium acnes (clinical isolate), second listed; test: as above; type: cell-based; conditions: Cutibacterium acnes, second listed (r8)
Protocol: as §1

human leukocytes = test: Cytotoxic assay on human leukocytes (viability dye, flow cytometry); type: cell-based; conditions: 2 h, various concentrations
Description: (§2) Human leukocytes were provided by the « Banco de Sangre del Hospital Regional del IMSS » and the Centro Estatal de la Transfusión Sanguínea in Cuernavaca, Morelos, Mexico. Institutional committees approved the acquisition and isolation of human peripheral blood leukocytes. Human leukocytes and erythrocytes were obtained as previously described. Mouse bone marrow cells (MBMCs) and erythrocytes were obtained from C57BL/6 or Balb/c mice. Mouse epithelial cells were isolated from C57Bl/6 mice, and human epithelial cells were recovered from surgery residues. In brief, intestinal tissues were minced and digested in 450-U/mL collagenase I, 125-U/mL collagenase XI, 60-U/mL hyaluronidase, and 60-U/mL DNAse for 1 hour before gradient density centrifugation on Histopaque-1083 (Sigma-Aldrich, St. Louis, MO). […]
(§3) 5.10^5 mouse or human leukocytes or primary epithelial cells, A549 or Jurkat E6-1 cells, were incubated in 100 µl RPMI or DMEM containing 0.5% BSA and […] with the peptides at different concentrations for 2 hours at 37°C, 5% CO2. […] Viability of leukocytes and Jurkat cells was determined by adding a viability dye (eFluor 780) and counted by FacsCanto flow cytometry with a predetermined number of beads (Polybead, Carboxylate Microspheres, Polysciences, Inc., Le Perray-en-Yvelines, France) added to the samples. […] Data were analyzed with FlowJo.

mouse leukocytes = test: Cytotoxic assay on mouse leukocytes (viability dye, flow cytometry); type: cell-based; conditions: 2 h, various concentrations
Description: as §2, §3

Jurkat E6-1 cells = test: Apoptosis/necrosis assay (annexin V / eFluor 780); type: cell-based; conditions: Jurkat E6-1, 5 µM, 2 hours
Protocol: Induction of apoptosis or necrosis by the peptides was tested by incubating 5.10^5 Jurkat E6-1 cells in 200 µl RPMI containing 10% FBS and […] with the peptides at 5 µM for 2 hours at 37°C, 5% CO2. A positive control was obtained by exposing the cells to UV light for 10 min (1 mJ/cm^2, Stratagene UV Stratalinker 2400), before incubating them for 4 hours at 37°C, 5% CO2, RPMI 10% FBS. Cells were then washed, centrifuged, resuspended, and incubated 30 min at 4°C in the dark with Viability dye 780 (BioLegend). After washing the cells, Annexin-V-FITC in annexin-binding buffer was added, and the cells were incubated for 15 minutes at room temperature in the dark. The cells were fixed with PFA at a final dilution of 2% before being analyzed by FACSCanto flow cytometry.

[3] = test system: Gram-positive and Gram-negative strains; test: Antibacterial properties on a series of strains; type: cell-based
Protocol: as §1
The minimum bactericidal concentration (MBC) is defined as the minimum concentration of the peptide killing 99.9% of bacteria after incubation at 37°C for 20 hours. […]

C57BL/6 mice = test: Thioglycolate-induced peritoneal inflammation (noninfectious peritonitis); type: in vivo, mouse; conditions: thioglycolate 3% i.p., 15 µg/injection i.p. at 14, 19 and 24 h, flow cytometry
Protocol: C57BL/6 mice were injected intraperitoneally with 1 mL 3% (wt/vol) thioglycolate (Sigma-Aldrich, l'Ile d'Abeau, France) dissolved in sterile NaCl and then 14, 19, and 24 hours later injected i.p. with DRS-DA2N or DRS-DA2NEQ (15 µg/injection). NaCl was used as a negative control. Twelve hours after the last injection, mice were killed, and 3 mL of cold PBS was injected i.p. to harvest peritoneal cells, which were then stained with anti-mouse Ly6G-PE, anti-mouse NK1.1-PE, anti-mouse CD11b-PerCP, and anti-mouse F4/80-APC (BD Biosciences, Rungis, France). Blood and bone marrow were also collected and stained with the same antibodies. Cells and beads were then counted by FACSCalibur flow cytometry, and data were analyzed with FlowJo. Cells being CD11b^hiLy6G^−NK1.1^− are considered to be monocytes (Mo), CD11b^hiLy6G^−NK1.1^− F4/80^+ macrophages (MΦ), and CD11b^hiLy6G^+NK1.1^− neutrophils (PMN).

[4] = Circular dichroism, percentage of helicity; type: physicochemical; conditions: POPE: POPG (75 : 25) LUVs, peptide/lipid 1/50, 10 mM Tris pH 7.4
Protocol: The CD spectra of the peptides were recorded as previously described. Measurements were carried out in 10 mM Tris buffer at pH 7.4 and in the presence of POPC, POPG, and POPG-POPC (25 : 75) LUVs or POPG-POPE (25 : 75) LUVS to mimic E. coli inner membrane composition at a peptide/lipid molar ratio of 1/50. Dichroic spectra were corrected by subtracting the background obtained for each peptide-free solution. An analysis of CD spectra was conducted after smoothing, and conversion to molar ellipticity was calculated as follows: […], where θobs is the observed ellipticity, n is the number of bonds, c is the peptide concentration in mol. L^−1, and l is the path length in cm.

[5] = test system: S. aureus ATCC 700699 (MecA+); test: Antibacterial activity on skin multiresistant bacteria; type: cell-based; conditions: Staphylococcus aureus, ATCC700699
Protocol: as §1

[6] = test system: S. epidermidis ST20140436 (MecA+); test: as above; type: cell-based; conditions: Staphylococcus epidermidis
Protocol: as §1

[7] = test system: Acinetobacter johnsonii (carbapenemase); test: as above; type: cell-based
Protocol: as §1

For omiganan, the “incubation time after which all the bacteria were killed” value (E. coli ATCC8739) was “needed a much longer time to be active” and the “LIC50 (peptide concentration required to induce 50% leakage)” value (ANTS/DPX leakage assay) was “No leakage”.

Molecule `C[C@H]1c2cccc(O)c2C(=O)C2=C(O)[C@]3(O)C(=O)C(C(N)=O)=C(O)[C@@H](N(C)C)[C@@H]3[C@@H](O)[C@@H]21` [doxycycline] has an MIC [1] of 0.13 µM (≈ 0.0578 µg/mL) and an MIC [2] of 0.27 µM (≈ 0.12 µg/mL).

With `CSCC[C@H](NC(=O)[C@H](C)NC(=O)[C@H](C)NC(=O)[C@H](CCCCN)NC(=O)[C@@H](NC(=O)[C@H](CC(C)C)NC(=O)[C@@H](NC(=O)[C@H](CC(N)=O)NC(=O)CNC(=O)[C@@H](N)CCCCN)C(C)C)C(C)C)C(=O)N[C@@H](CC(C)C)C(=O)N[C@H](C(=O)N[C@@H](CCCCN)C(=O)N[C@H](C(=O)N[C@@H](CC(C)C)C(=O)N[C@@H](C)C(=O)N[C@@H](CCCCN)C(=O)N[C@@H](CC(N)=O)C(=O)N[C@@H](CCCCN)C(=O)NCC(=O)N[C@H](C(=O)N[C@@H](CCC(N)=O)C(=O)N[C@@H](CC(N)=O)C(=O)N[C@@H](C)C(=O)N[C@@H](CC(N)=O)C(=O)N[C@@H](C)C(=O)N[C@@H](CC(C)C)C(=O)N[C@H](C(=O)N[C@@H](Cc1c[nH]c2ccccc12)C(=O)O)[C@@H](C)O)C(C)C)C(C)C)[C@@H](C)O` [Scr] (H-KGNVLVKAAMLTKVLAKNKGVQNANALTW-OH; N-terminus and C-terminus assumed) the “induction of death of leukocyte populations” value (human leukocytes) was “did not induce the death”, the “induction of death of leukocyte populations” value (mouse leukocytes) was “did not induce the death” and the cell death (Jurkat E6-1 cells) was under 4%. The “cells alive (A−V−)” value (Jurkat E6-1 cells) was “more than 96%”, the bacterial activity [3] was “did not exhibit any bacterial activity” and the “egress of inflammatory cells from the bone marrow and increase in blood after induction of peritonitis (systemic effect)” value (C57BL/6 mice) was “conserved”. The “percentage of helicity (CD)” value [4] was “remained unstructured”.

In the case of `CC1(C)S[C@@H]2[C@H](NC(=O)[C@H](N)c3ccc(O)cc3)C(=O)N2[C@H]1C(=O)O` [amoxicillin], the MIC [5] is reported as over 43.8 µM and the MIC [6] is reported as over 43.8 µM.

`CC(C)(O/N=C(\C(=O)N[C@@H]1C(=O)N2C(C(=O)[O-])=C(C[n+]3ccccc3)CS[C@H]12)c1csc(N)n1)C(=O)O` [ceftazidime] gave an MIC [7] of over 29.3 µM.
